Biological target: (recombinant) catalytic domain of human Bub1 (amino acids 704-1085) (Homo sapiens (Human), UniProt O43683)
Assay: Bub1 kinase assay (TR-FRET)
Format: biochemical
Conditions: ATP 10 μM final, peptide substrate 1 μM final, 60 min at 22° C., read-out: Biological Assay: Bub1 kinase assay median IC50
Procedure: Examples were tested in selected biological assays one or more times. When tested more than once, data are reported as either average values or as median values, wherein • the average value, also referred to as the arithmetic mean value, represents the sum of the values obtained divided by the number of times tested, and • the median value represents the middle number of the group of values when ranked in ascending or descending order. If the number of values in the data set is odd, the median is the middle value. If the number of values in the data set is even, the median is the arithmetic mean of the two middle values.
To this end, 100-fold concentrated compound solutions (in DMSO) were previously prepared by serial dilution (1:3.4) of 2 mM stocks in a clear low volume 384-well source microtiter plate (Greiner Bio-One, Frickenhausen, Germany), from which 50 nl of compounds were transferred into a black low volume test microtiter plate from the same supplier. […] The resulting mixture (5 μL final volume) was incubated at 22° C. during 60 min., and the reaction was stopped by the addition of 5 μL of an aqueous EDTA-solution (50 mM EDTA, in 100 mM HEPES pH 7.5 and 0.2% (w/v) bovine serum albumin) which also contained the TR-FRET detection reagents (0.2 μM streptavidin-XL665 [Cisbio Bioassays, Codolet, France] and 1 nM anti-phosho-Serine antibody [Merck Millipore, cat. #35-002] and 0.4 nM LANCE EU-W1024 labeled anti-mouse IgG antibody [Perkin-Elmer, product no. AD0077, alternatively a Terbium-cryptate-labeled anti-mouse IgG antibody from Cisbio Bioassays can be used]). The stopped reaction mixture was further incubated 1 h at 22° C. in order to allow the formation of complexes between peptides and detection reagents. Subsequently, the amount of product was evaluated by measurement of the resonance energy transfer from the Eu-chelate-antibody complex recognizing the Phosphoserine residue to the streptavidin-XL665 bound to the biotin moiety of the peptide. […] The data were normalised using two sets of control wells for high- (=enzyme reaction without inhibitor=0%=Minimum inhibition) and low- (=all assay components without enzyme=100%=Maximum inhibition) Bub1 activity. IC50 values were calculated by fitting the normalized inhibition data to a 4-parameter logistic equation (Minimum, Maximum, IC50, Hill; Y=Max+(Min−Max)/(1+(X/IC50)Hill)).

Sequence of (recombinant) catalytic domain of human Bub1 (amino acids 704-1085) (O43683 704-1085): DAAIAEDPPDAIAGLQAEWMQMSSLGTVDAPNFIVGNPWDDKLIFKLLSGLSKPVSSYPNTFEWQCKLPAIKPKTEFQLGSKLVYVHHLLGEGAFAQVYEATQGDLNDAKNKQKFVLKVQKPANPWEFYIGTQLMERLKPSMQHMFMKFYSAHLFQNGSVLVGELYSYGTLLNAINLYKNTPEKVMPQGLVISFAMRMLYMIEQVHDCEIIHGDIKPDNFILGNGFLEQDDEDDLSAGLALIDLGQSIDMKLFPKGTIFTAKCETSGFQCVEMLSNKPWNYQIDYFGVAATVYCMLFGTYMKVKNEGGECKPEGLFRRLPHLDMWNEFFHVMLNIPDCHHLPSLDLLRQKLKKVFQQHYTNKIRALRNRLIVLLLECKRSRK

Row | Compound | IC50 [µM]
1 | CC1(C)CC(=O)c2c([nH]c(-c3ccncc3)c2Nc2cccc(OCc3ccccc3)c2)C1 [Example 80, 3-{[3-(benzyloxy)phenyl]amino}-6,6-dimethyl-2-(pyridin-4-yl)-1,5,6,7-tetrahydro-4H-indol-4-one] | 0.188
2 | COc1cc(-c2[nH]c3c(c2Nc2ccccc2)C(=O)CCC3)ccn1 [Example 150, 2-(2-methoxypyridin-4-yl)-3-(phenylamino)-1,5,6,7-tetrahydro-4H-indol-4-one] | 1.89
3 | CC(C)c1ccc(Nc2c(-c3ccncc3)[nH]c3c2C(=O)CC(C)(C)C3)cc1 [Example 86, 6,6-dimethyl-3-{[4-(propan-2-yl)phenyl]amino}-2-(pyridin-4-yl)-1,5,6,7-tetrahydro-4H-indol-4-one] | 5.46
4 | CC1(C)CC(=O)c2c([nH]c(-c3ccncc3)c2Nc2cc(Cl)ccc2Cl)C1 [Example 78, 3-[(2,5-dichlorophenyl)amino]-6,6-dimethyl-2-(pyridin-4-yl)-1,5,6,7-tetrahydro-4H-indol-4-one] | 6.95
5 | CC1(C)CC(=O)c2c([nH]c(-c3ccncc3)c2Nc2ccc(F)c(Cl)c2)C1 [Example 95, 3-[(3-chloro-4-fluorophenyl)amino]-6,6-dimethyl-2-(pyridin-4-yl)-1,5,6,7-tetrahydro-4H-indol-4-one] | 0.0437
6 | CC(C)c1ccccc1Nc1c(-c2ccncc2)[nH]c2c1C(=O)CC(C)(C)C2 [Example 88, 6,6-dimethyl-3-{[2-(propan-2-yl)phenyl]amino}-2-(pyridin-4-yl)-1,5,6,7-tetrahydro-4H-indol-4-one] | 2.61
7 | COc1ccc(OC)c(Nc2c(-c3ccncc3)[nH]c3c2C(=O)CC(C)(C)C3)c1 [Example 76, 3-[(2,5-dimethoxyphenyl)amino]-6,6-dimethyl-2-(pyridin-4-yl)-1,5,6,7-tetrahydro-4H-indol-4-one] | 4.27
8 | CC1(C)CC(=O)c2c([nH]c(-c3ccncc3)c2Nc2cccc(C(F)(F)F)c2)C1 [Example 51, 6,6-dimethyl-2-(pyridin-4-yl)-3-{[3-(trifluoromethyl)phenyl]amino}-1,5,6,7-tetrahydro-4H-indol-4-one] | 0.136
9 | CC(=O)Nc1cccc(Nc2c(-c3ccncc3)[nH]c3c2C(=O)CC(C)(C)C3)c1 [Example 109, N-(3-{[6,6-dimethyl-4-oxo-2-(pyridin-4-yl)-4,5,6,7-tetrahydro-1H-indol-3-yl]amino}phenyl)acetamide] | 4.56
10 | N#Cc1cnccc1-c1[nH]c2c(c1Nc1ccccc1)C(=O)CCC2 [Example 197, 4-[4-oxo-3-(phenylamino)-4,5,6,7-tetrahydro-1H-indol-2-yl]pyridine-3-carbonitrile] | > 20
11 | CC1(C)CC(=O)c2c([nH]c(-c3ccncc3)c2Nc2cc(F)c(F)c(F)c2)C1 [Example 32, 6,6-dimethyl-2-(pyridin-4-yl)-3-[(3,4,5-trifluorophenyl)amino]-1,5,6,7-tetrahydro-4H-indol-4-one] | 0.0157
12 | CC(=O)Nc1cc(-c2[nH]c3c(c2Nc2cccc(F)c2)C(=O)CCC3)ccn1 [Example 40, N-(4-{3-[(3-fluorophenyl)amino]-4-oxo-4,5,6,7-tetrahydro-1H-indol-2-yl}pyridin-2-yl)acetamide] | 0.0152
13 | Cc1ccc(Cl)cc1Nc1c(-c2ccncc2)[nH]c2c1C(=O)CC(C)(C)C2 [Example 93, 3-[(5-chloro-2-methylphenyl)amino]-6,6-dimethyl-2-(pyridin-4-yl)-1,5,6,7-tetrahydro-4H-indol-4-one] | 7.4
14 | Cn1c2c(c(Nc3ccccc3)c1-c1ccncc1)C(=O)CCC2 [Example 169, 1-methyl-3-(phenylamino)-2-(pyridin-4-yl)-1,5,6,7-tetrahydro-4H-indol-4-one] | 0.125
15 | CC1(C)CC(=O)c2c([nH]c(-c3ccncc3)c2Nc2ccc3sccc3c2)C1 [Example 69, 3-(1-benzothiophen-5-ylamino)-6,6-dimethyl-2-(pyridin-4-yl)-1,5,6,7-tetrahydro-4H-indol-4-one] | 0.0764
16 | CC1(C)CC(=O)c2c([nH]c(-c3ccncc3)c2Nc2cccc(N)c2)C1 [Example 65, 3-[(3-aminophenyl)amino]-6,6-dimethyl-2-(pyridin-4-yl)-1,5,6,7-tetrahydro-4H-indol-4-one] | 0.525
17 | CC1(C)CC(=O)c2c([nH]c(-c3ccncc3)c2Nc2cccc(C(=O)OC(C)(C)C)c2)C1 [Example 118, tert-butyl 3-{[6,6-dimethyl-4-oxo-2-(pyridin-4-yl)-4,5,6,7-tetrahydro-1H-indol-3-yl]amino}benzoate] | 0.457
18 | CCCCOCC(=O)Nc1cc(-c2[nH]c3c(c2Nc2ccccc2)C(=O)CCC3)ccn1 [Example 333, 2-butoxy-N-{4-[4-oxo-3-(phenylamino)-4,5,6,7-tetrahydro-1H-indol-2-yl]pyridin-2-yl}acetamide] | 0.00733
19 | COc1cc(F)ccc1Nc1c(-c2ccncc2)[nH]c2c1C(=O)CC(C)(C)C2 [Example 121, 3-[(4-fluoro-2-methoxyphenyl)amino]-6,6-dimethyl-2-(pyridin-4-yl)-1,5,6,7-tetrahydro-4H-indol-4-one] | 0.323

The next lines start with the values.

Row | IC50 [µM] | Compound
20 | 0.906 | O=C1CCCc2[nH]c(-c3cc(F)ncc3F)c(Nc3ccccc3)c21 [Example 218, 2-(2,5-difluoropyridin-4-yl)-3-(phenylamino)-1,5,6,7-tetrahydro-4H-indol-4-one]
21 | 0.33 | CC1(C)CC(=O)c2c([nH]c(-c3ccncc3)c2Nc2cc(-c3ccccc3)ccn2)C1 [Example 422, 6,6-dimethyl-3-[(4-phenylpyridin-2-yl)amino]-2-(pyridin-4-yl)-1,5,6,7-tetrahydro-4H-indol-4-one]
22 | 0.0233 | CC1(C)CC(=O)c2c([nH]c(-c3ccnc(NC(=O)c4cc(F)cc(F)c4)c3)c2Nc2ccccc2)C1 [Example 467, N-{4-[6,6-dimethyl-4-oxo-3-(phenylamino)-4,5,6,7-tetrahydro-1H-indol-2-yl]pyridin-2-yl}-3,5-difluorobenzamide]
23 | > 20 | CC1(C)CC(=O)c2c([nH]c(-c3ccncc3)c2Nc2ccc(Cc3ccccc3)cc2)C1 [Example 513, 3-[(4-benzylphenyl)amino]-6,6-dimethyl-2-(pyridin-4-yl)-1,5,6,7-tetrahydro-4H-indol-4-one]
24 | 0.0366 | O=C(Nc1cc(-c2[nH]c3c(c2Nc2ccccc2)C(=O)CCC3)ccn1)NC1CC1 [Example 379, 1-cyclopropyl-3-{4-[4-oxo-3-(phenylamino)-4,5,6,7-tetrahydro-1H-indol-2-yl]pyridin-2-yl}urea]
25 | 0.00764 | O=C(Nc1cc(-c2[nH]c3c(c2Nc2ccccc2)C(=O)CCC3)ccn1)c1cscn1 [Example 271, N-{4-[4-oxo-3-(phenylamino)-4,5,6,7-tetrahydro-1H-indol-2-yl]pyridin-2-yl}-1,3-thiazole-4-carboxamide]
26 | 0.0127 | CC(C)C1CC(=O)c2c([nH]c(-c3ccnc(NC(=O)C4CC4)c3)c2Nc2ccc(F)cc2)C1 (centres unmarked) [Example 322, N-{4-[3-[(4-fluorophenyl)amino]-4-oxo-6-(propan-2-yl)-4,5,6,7-tetrahydro-1H-indol-2-yl]pyridin-2-yl}cyclopropanecarboxamide]
27 | 2.51 | CC(C)Nc1cnccc1-c1[nH]c2c(c1Nc1ccccc1)C(=O)CCC2 [Example 376, 3-(phenylamino)-2-[3-(propan-2-ylamino)pyridin-4-yl]-1,5,6,7-tetrahydro-4H-indol-4-one]
28 | 0.273 | Cn1nccc1-c1cccc(Nc2c(-c3ccncc3)[nH]c3c2C(=O)CC(C)(C)C3)c1 [Example 417, 6,6-dimethyl-3-{[3-(1-methyl-1H-pyrazol-5-yl)phenyl]amino}-2-(pyridin-4-yl)-1,5,6,7-tetrahydro-4H-indol-4-one]
29 | 0.00505 | O=C1CC(CCl)Cc2[nH]c(-c3ccncc3)c(Nc3ccccc3)c21 (centres unmarked) [Example 443, 6-(chloromethyl)-3-(phenylamino)-2-(pyridin-4-yl)-1,5,6,7-tetrahydro-4H-indol-4-one]
30 | 0.00449 | O=C(Nc1cc(-c2[nH]c3c(c2Nc2ccccc2)C(=O)CC2(CC2)C3)ccn1)c1cocn1 [Example 470, N-{4-[4′-oxo-3′-(phenylamino)-1′,4′,5′,7′-tetrahydrospiro[cyclopropane-1,6′-indol]-2′-yl]pyridin-2-yl}-1,3-oxazole-4-carboxamide]
31 | > 20 | CC1(C)CC(=O)c2c([nH]c(-c3ccncc3)c2Nc2ccc(Oc3ccccc3)cc2)C1 [Example 514, 6,6-dimethyl-3-[(4-phenoxyphenyl)amino]-2-(pyridin-4-yl)-1,5,6,7-tetrahydro-4H-indol-4-one]
32 | 0.0733 | CCCOc1cnccc1-c1[nH]c2c(c1Nc1ccccc1)C(=O)CCC2 [Example 456, 3-(phenylamino)-2-(3-propoxypyridin-4-yl)-1,5,6,7-tetrahydro-4H-indol-4-one]

— patent US10428044B2, “3-amino-1,5,6,7-tetrahydro-4H-indol-4-ones” (Bayer Pharma Aktiengesellschaft, priority 2014, dated 2019)
